Assays:
[1] = human, in vivo, po; cited from earlier work
[2] = system: subjects with overactive bladder; format: in vivo, human
Protocol: Dexmecamylamine is a use-dependent potent inhibitor of the α3 nicotinic receptor subtype (e.g., α3β2 and α3β4). Such receptors are expressed in the urothelium and regulate bladder smooth muscle contraction. (Beckel et al., Expression of functional nicotinic acetylcholine receptors in rat urinary bladder epithelial cells, Am. J. Physiol. Renal Physiol. 290:F103-110, 2006). A clinical study was performed to evaluate the safety, tolerability, and efficacy of dexmecamylamine (TC-5214) for the treatment of Overactive Bladder (OAB). The study included a three- or five-week screening period, followed by a 12-week treatment period during which patients received either one of three doses of dexmecamylamine or placebo twice daily, randomized in a ratio of 2:1:1:1 (placebo, low dose, mid dose, high dose), with a two-week follow-up period. A total of 768 subjects with overactive bladder were randomized into the double-blind treatment period of the study. On Jul. 28, 2014, Targacept announced top-line results from the Phase 2b clinical trial of TC-5214 as a treatment for overactive bladder (OAB). […] See also, PCT Application No. […], which published as WO 2013/142162 A1.
As noted hereinabove, a clinical study was performed to evaluate the safety, tolerability, and efficacy of dexmecamylamine (TC-5214) for the treatment of Overactive Bladder (OAB). The study included a three- or five-week screening period, followed by a 12-week treatment period during which patients received either one of three doses of dexmecamylamine or placebo twice daily, randomized in a ratio of 2:1:1:1 (placebo, low dose, mid dose, high dose), with a two-week follow-up period. A total of 768 subjects with overactive bladder were randomized into the double-blind treatment period of the study. […] See also, PCT Application No. PCT/US2013/030640, which published as WO 2013/142162 A1.

[3] = system: Major Depressive Disorder (MDD) subjects; format: in vivo, human
Protocol: More recently, dexmecamylamine was evaluated as adjunctive therapy in the treatment of major depressive disorder (MDD) in a large international Phase 3 depression program. […] More than 2400 subjects have received dexmecamylamine in double-blind or open-label studies.
No safety studies using dexmecamylamine have been performed in OAB. Phase 2 and Phase 3 clinical studies using dexmecamylamine in Major Depressive Disorder (MDD) have been conducted and completed. […] Briefly, in the fixed dose Phase 3 studies in MDD, at doses of 2 mg BID (the maximum doses to be studied in the OAB study), the most frequent treatment emergent adverse events that were reported more than 2% more commonly in the dexmecamylamine group compared to placebo group were: constipation (15.2% dexmecamylamine vs. 3.8% placebo): and dry mouth (7.0% dexmecamylamine vs. 1.3% placebo).

[4] = Excretion of dexmecamylamine in urine; conditions: in vivo
Excerpt: The exposure differential results in the ability of dexmecamylamine to target local nicotinic receptors in the urothelium that affect bladder contraction frequency while limiting systemic side effects. Consequently, the potential for dexmecamylamine to treat OAB through its action on nAChRs in the bladder urothelium warrants further investigation.

sympathetic activities = experiment: Dose-responses for inhibition of sympathetic activities at low and high firing frequency (FIG. 2); conditions: 1 Hz versus 10 Hz firing frequency
Protocol: This is believed due, in part, to the fact that TC-5214 potency will increase with frequency due to its slow off-rate kinetics. See FIG. 2, which illustrates a 10-fold shift to the left with increasing frequency. The effective dose range, therefore, is believed to be between 0.1 and 1 mg; with a top dose at 2 mg once per day, since sympathetic activity decreases at night in primary hyperhidrosis. […] The potency of TC-5214 shifts to the left (red/triangle curve) thereby reducing sweating due to overactive sympathetic but remain too low to induce inhibition of the parasympathetic and associated side effects, including urinary retention and constipation.

[5] = pre-clinical; see U.S. Pat. No. 7,101,916; cited from earlier work

Structure (SMILES): CNC1(C)C2CCC(C2)C1(C)C.Cl (racemic) [mecamylamine, N,2,3,3-tetramethylbicyclo[2.2.1]heptan-2-amine hydrochloride]
- absorption from the gastrointestinal tract [1]: nearly complete absorption

Structure (SMILES): CNC1(C)[C@H]2CCC(C2)C1(C)C (stereo in doubt) [TC-5214, (S)-N,2,3,3-tetramethylnorbornan-2-amine]
- micturition frequency per 24 hours (co-primary endpoint) ([2]; high dose, twice daily, after 12 weeks of treatment, p=0.033): statistically significant reduction
- episodes of urinary incontinence per 24 hours (co-primary endpoint) ([2]; high dose, twice daily, after 12 weeks of treatment, p=0.379): improvement that did not reach statistical significance
- safety and tolerability ([2]; human, in vivo): generally safe and well tolerated
- placebo corrected rate of constipation ([2]; human, in vivo, 12 weeks): 15.1%
- rate of urinary tract infection (placebo corrected) ([2]; human, in vivo, 12 weeks): 5.9%
- efficacy in the treatment of depression ([3]; adjunctive therapy, Phase 3 depression program): failed to demonstrate efficacy
- safety and tolerability ([3]; human, in vivo): generally safe and well-tolerated
- vital signs, blood or urine laboratory measurements, ECG conduction intervals, suicidality ([3]; human, in vivo): no noteworthy differences
- excretion in the urine [4]: excreted almost entirely unchanged in the urine
- shift of potency (dose-response to the left) with increasing frequency (sympathetic activities): 10 fold
- safety profile versus mecamylamine and its R-isomer [5]: superior safety profile
